What was measured:
Assay type in all cases: cell-based
[1] = system: TGF-β1-stimulated Smad2 phosphorylation in Mv1Lu cells; experiment: TGF-β1-stimulated Smad2 phosphorylation, quantitative Western blot (P-Smad2/Smad2); conditions: several concentrations of the inhibitors, 100 pM TGF-β1 for 30 min
Method: (A-I, K) Cells were pretreated with 10 mg/ml β-CD (A, K), 20 LM MDC (B), 40 μM monensin (C), 20 μM TFP (D) and 0.45 M sucrose (K) or several concentrations (as indicated) of β-CD (E), TFP (F), monensin (G), chloroquine (H), dynasore (I), at 37° C. for 1 h. The cells were then stimulated with vehicle only or […] TGF-β1 (A to I) or several concentrations (as indicated) of TGF-β1 (K). After several time periods, as indicated, at 37° C., cell lysates were analysed by 7.5% SDS PAGE followed by Western blot analysis using antibodies to P-Smad2 and Smad2 and chemiluminescence development (a or top) and quantitation by densitometry (b or bottom). The relative level of P-Smad2 was expressed as arbitrary units (A.U.) (A, B, C, D, K) (b). The relative level of P-Smad2 in cells treated with TGF-β alone was taken as 100% of control (E to I, bottom). The data shown is representative of 3 independent experiments. (J) Cells were pretreated with 10 mg/ml β-CD (c,d) at 37° C. for 1 h. The cells were then stimulated with vehicle only (a) or with 100 pM TGF-β (b,d). After 30 min at 37° C. the cells were fixed and subjected to indirect immunofluorescent staining using antibody to P-Smad2. The magnification is 200×. The data shown is representative of 3 independent experiments.
If TGF-β-induced signaling occurs in endosomes, as reported previously^6-15, inhibitors of clathrin-dependent endocytosis would be expected to attenuate TGF-β-stimulated signaling such as Smad2 phosphorylation and nuclear colocalization^4,5. To test this, Mv1Lu cells were pretreated with vehicle only or with clathrin-dependent endocytosis inhibitors at 37° C. for 30 min and then treated with or without 100 pM TGF-β1. After several time periods, the relative levels of P-Smad2 in treated and stimulated cells were analyzed by quantitative Western blot analysis using antibodies to P-Smad2 and Smad2. […] After stimulation of cells with TGF-β1 for 60 min, β-CD, TFP, MDC and monensin enhanced TGF-β1-stimulated Smad2 phosphorylation by ˜1.5-2.5 fold (FIGS. 1Ab, 1Bb, 1Cb, and 1Db). To further characterize the effects of these inhibitors on Smad2 phosphorylation, Mv1Lu cells were pretreated with vehicle only or with several concentrations of the inhibitors at 37° C. for 30 min and then stimulated with 100 pM of TGF-β1. After 30 min at 37° C., cell lysates were subjected to Western blot analysis using antibodies to P-Smad2 and Smad2 followed by quantitation with densitometry. […] To determine the effect of β-CD on TGF-β1-stimulated nuclear localization of P-Smad2, Mv1Lu cells were pretreated with vehicle only or with β-CD (10 mg/ml). After 1 h at 37° C., cells were stimulated with TGF-β1 ([…]) for 30 min. The nuclear localization of P-Smad2 was then analyzed by indirect fluorescent staining.
To define the coated-pit stages that are important in TGF-β1-induced signaling, we treated Mv1Lu cells with hyperosmotic sucrose (0.45 M) or β-CD and examined TGF-β1-stimulated Smad2 phosphorylation in these cells. […] In cells stimulated with 100 pM TGF-β1, hyperosmotic sucrose attenuated Smad2 phosphorylation by ˜60% (FIG. 1Kb). On the other hand, β-CD enhanced TGF-β1-stimulated Smad2 phosphorylation at all concentrations of TGF-β1. It enhanced TGF-β1-stimulated Smad2 phosphorylation by 2-4 fold when compared with the control (treatment without β-CD) (FIGS. 1Ka and 1Kb).

[2] = system: TβR-I and SARA at the plasma membrane in Mv1Lu cells; experiment: Co-localization and accumulation of TβR-I and SARA, immunofluorescent microscopy; conditions: 20 μM TFP, 10 mg/ml β-CD, 40 μM dynasore, 200 μM chloroquine, with 100 pM TGF-β1, 30 min
Method: Cells were pretreated with vehicle only or 20 μM TFP, 10 mg/ml β-CD, 40 μM dynasore (Dyn) and 200 μM chloroquine (CQ) at 37° C. for 1 h. Treated cells were then stimulated with and without 100 pM TGF-β1. After 30 min at 37° C., cells were fixed and analyzed by indirect immunofluorescent staining using antibody to TβR-I (panels 1-10) and SARA (panels 11-20), DAPI (nuclear) staining was also performed (panels 21-30). Merged staining is also shown (panels 31-40). Insets indicate the co-localization and accumulation of SARA and TβR-I at the plasma membrane.
TGF-β stimulates Smad2 phosphorylation by inducing association of TβR-I and SARA^6,7 (which serves as an anchor for Smad2), binding of Smad2 to SARA, and subsequent phosphorylation of Smad2 by TβR-I in the TβR-1-SARA-Smad2 complex. If clathrin-dependent endocytosis inhibitors enhance TGF-β-induced signaling (TGF-β-stimulated Smad2 phosphorylation) by increasing accumulation of TβR-I/TβR-II complexes at the coated pits, they should promote co-localization and accumulation of TβR-I and SARA at the plasma membrane. To test this, Mv1Lu cells were stimulated with 100 pM TGF-β1. After 30 min at 37° C., […] analyzed by immunofluorescent microscopy using antibodies to TβR-I and SARA. […] This is consistent with the previous report that TGF-β enhances TGF-β receptor internalization^16.

[3] = system: PAI-1 expression in bovine aortic endothelial cells (BAEC cells); experiment: TGF-β-stimulated expression of PAI-1 in BAEC cells; conditions: dynasore 50 μM; BAEC cells (unpublished results)
Method: We hypothesize that TGF-β enhancers such as inhibitors of clathrin-dependent endocytosis may ameliorate atherosclerosis caused by cholesterol-induced suppression of TGF-β responsiveness in vascular cells^3,12. To test our hypothesis, we treated hypercholesterolemic ApoE-null mice with dynasore (1 mg/kg body weight) via intraperitoneal administration every two days for 8 weeks. We chose dynasore for two reasons. […] At 50 μM, it enhances TGF-β-stimulated expression of PAI-1 in these cell types by ˜4-5 fold, 2) Dynasore is the only inhibitor tested which alone is capable of stimulating PAI-1 expression. […] The plasma levels of cholesterol in wild-type mice treated with either vehicle only or dynasore were 120±10 and 125±20 mg/dl, respectively.

Structure (SMILES): O=C(N/N=C/c1ccc(O)c(O)c1)c1cc2ccccc2cc1O [dynasore]
- concentration dependence of the effect on TGF-β1-stimulated Smad2 phosphorylation [1]: enhanced TGF-β1-stimulated Smad2 phosphorylation in a concentration-dependent manner
- co-localization and accumulation of TβR-I and SARA at the plasma membrane, co-treatment with TGF-β1 [2]: promoted co-localization and accumulation of TβR-I and SARA at the plasma membrane
- enhancement of TGF-β-stimulated expression of PAI-1 [3]: 4-5 fold

— patent US8487006B2, “Method of enhancing TGF-β signalling” (Auxagen, Inc., priority 2008, dated 2013)
